Source: patent US11420944B2, “Voltage-dependent t-type calcium channel blocker” (Nippon Chemiphar Co., Ltd., priority 2016, dated 2022)
Like-named read-outs stand apart in the source and are kept apart here.

How the values were obtained:
CYP3A4 = target: T1, CYP3A4 (Homo sapiens, UniProt P08684); experiment: Evaluation of CYP3A4 activity inhibitory action; assay type: in vitro ADME; conditions: Human CYP3A4BR EasyCYP Bactosomes, 7-Benzyloxy-4-(trifluoromethyl)-coumarin
T1 construct: purchased Cypex, Ltd; host or cells: E. coli membranes (Bactosomes)
T1 sequence (P08684 whole entry): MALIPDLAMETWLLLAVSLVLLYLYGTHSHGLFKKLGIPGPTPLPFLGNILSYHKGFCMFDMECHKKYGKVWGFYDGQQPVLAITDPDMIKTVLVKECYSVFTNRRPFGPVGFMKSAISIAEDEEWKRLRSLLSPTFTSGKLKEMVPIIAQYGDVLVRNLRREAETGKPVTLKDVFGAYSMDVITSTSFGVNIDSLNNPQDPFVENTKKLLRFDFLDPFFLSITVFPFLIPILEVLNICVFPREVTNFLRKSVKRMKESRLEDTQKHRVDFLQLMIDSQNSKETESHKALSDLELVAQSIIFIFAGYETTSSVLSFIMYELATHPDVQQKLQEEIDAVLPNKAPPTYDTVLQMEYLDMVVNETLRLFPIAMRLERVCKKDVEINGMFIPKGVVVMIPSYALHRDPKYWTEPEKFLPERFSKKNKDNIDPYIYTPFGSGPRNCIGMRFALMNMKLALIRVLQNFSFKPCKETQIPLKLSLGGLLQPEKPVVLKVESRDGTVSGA
Protocol: Evaluation of CYP3A4 Activity Inhibitory Action
To a 50 mM potassium phosphate buffer solution (pH 7.4), 5 nM Human CYP3A4BR EasyCYP Bactosomes (Cypex, Ltd.), 50 μM 7-Benzyloxy-4-(trifluoromethyl)-coumarin, cofactor mix (0.0081 mM β-NADP^+, 0.4 mM G-6-P, 0.4 mM MgCl2, and 0.2 U/mL G-6-P DH(Y)), and 0.01% Pluronic F-127 were added, and the mixture was incubated for 45 minutes at 37° C. The reaction was initiated by adding the cofactor mix. After the incubation, 0.5 M Tris base/acetonitrile (20:80) was added thereto as a reaction terminating liquid, and the resulting mixture was stirred. Subsequently, the fluorescence intensity (excitation: 405 nm, emission: 535 nm) was measured. The reaction was carried out in duplicate. The results are presented as the inhibition rate at 10 μM of the test compound.

human Cav3.2 channels [1] = target: T2, human Cav3.2 channels (Homo sapiens, UniProt O95180); experiment: Electrophysiological evaluation, whole-cell patch-clamp with automatic patch-clamp system; assay type: cell-based; conditions: for inhibition at 0.3 µM: holding potential −80 mV, read-out: Cav3.2 channel current inhibition ratio at 0.3 μM of test compound (holding potential −80 mV)
T2 construct: expressed in transfected cells; host or cells: HEK293 cells (ATCC No. CRL-1573), plasmid pcDNA3.1(+)
T2 sequence (O95180 whole entry): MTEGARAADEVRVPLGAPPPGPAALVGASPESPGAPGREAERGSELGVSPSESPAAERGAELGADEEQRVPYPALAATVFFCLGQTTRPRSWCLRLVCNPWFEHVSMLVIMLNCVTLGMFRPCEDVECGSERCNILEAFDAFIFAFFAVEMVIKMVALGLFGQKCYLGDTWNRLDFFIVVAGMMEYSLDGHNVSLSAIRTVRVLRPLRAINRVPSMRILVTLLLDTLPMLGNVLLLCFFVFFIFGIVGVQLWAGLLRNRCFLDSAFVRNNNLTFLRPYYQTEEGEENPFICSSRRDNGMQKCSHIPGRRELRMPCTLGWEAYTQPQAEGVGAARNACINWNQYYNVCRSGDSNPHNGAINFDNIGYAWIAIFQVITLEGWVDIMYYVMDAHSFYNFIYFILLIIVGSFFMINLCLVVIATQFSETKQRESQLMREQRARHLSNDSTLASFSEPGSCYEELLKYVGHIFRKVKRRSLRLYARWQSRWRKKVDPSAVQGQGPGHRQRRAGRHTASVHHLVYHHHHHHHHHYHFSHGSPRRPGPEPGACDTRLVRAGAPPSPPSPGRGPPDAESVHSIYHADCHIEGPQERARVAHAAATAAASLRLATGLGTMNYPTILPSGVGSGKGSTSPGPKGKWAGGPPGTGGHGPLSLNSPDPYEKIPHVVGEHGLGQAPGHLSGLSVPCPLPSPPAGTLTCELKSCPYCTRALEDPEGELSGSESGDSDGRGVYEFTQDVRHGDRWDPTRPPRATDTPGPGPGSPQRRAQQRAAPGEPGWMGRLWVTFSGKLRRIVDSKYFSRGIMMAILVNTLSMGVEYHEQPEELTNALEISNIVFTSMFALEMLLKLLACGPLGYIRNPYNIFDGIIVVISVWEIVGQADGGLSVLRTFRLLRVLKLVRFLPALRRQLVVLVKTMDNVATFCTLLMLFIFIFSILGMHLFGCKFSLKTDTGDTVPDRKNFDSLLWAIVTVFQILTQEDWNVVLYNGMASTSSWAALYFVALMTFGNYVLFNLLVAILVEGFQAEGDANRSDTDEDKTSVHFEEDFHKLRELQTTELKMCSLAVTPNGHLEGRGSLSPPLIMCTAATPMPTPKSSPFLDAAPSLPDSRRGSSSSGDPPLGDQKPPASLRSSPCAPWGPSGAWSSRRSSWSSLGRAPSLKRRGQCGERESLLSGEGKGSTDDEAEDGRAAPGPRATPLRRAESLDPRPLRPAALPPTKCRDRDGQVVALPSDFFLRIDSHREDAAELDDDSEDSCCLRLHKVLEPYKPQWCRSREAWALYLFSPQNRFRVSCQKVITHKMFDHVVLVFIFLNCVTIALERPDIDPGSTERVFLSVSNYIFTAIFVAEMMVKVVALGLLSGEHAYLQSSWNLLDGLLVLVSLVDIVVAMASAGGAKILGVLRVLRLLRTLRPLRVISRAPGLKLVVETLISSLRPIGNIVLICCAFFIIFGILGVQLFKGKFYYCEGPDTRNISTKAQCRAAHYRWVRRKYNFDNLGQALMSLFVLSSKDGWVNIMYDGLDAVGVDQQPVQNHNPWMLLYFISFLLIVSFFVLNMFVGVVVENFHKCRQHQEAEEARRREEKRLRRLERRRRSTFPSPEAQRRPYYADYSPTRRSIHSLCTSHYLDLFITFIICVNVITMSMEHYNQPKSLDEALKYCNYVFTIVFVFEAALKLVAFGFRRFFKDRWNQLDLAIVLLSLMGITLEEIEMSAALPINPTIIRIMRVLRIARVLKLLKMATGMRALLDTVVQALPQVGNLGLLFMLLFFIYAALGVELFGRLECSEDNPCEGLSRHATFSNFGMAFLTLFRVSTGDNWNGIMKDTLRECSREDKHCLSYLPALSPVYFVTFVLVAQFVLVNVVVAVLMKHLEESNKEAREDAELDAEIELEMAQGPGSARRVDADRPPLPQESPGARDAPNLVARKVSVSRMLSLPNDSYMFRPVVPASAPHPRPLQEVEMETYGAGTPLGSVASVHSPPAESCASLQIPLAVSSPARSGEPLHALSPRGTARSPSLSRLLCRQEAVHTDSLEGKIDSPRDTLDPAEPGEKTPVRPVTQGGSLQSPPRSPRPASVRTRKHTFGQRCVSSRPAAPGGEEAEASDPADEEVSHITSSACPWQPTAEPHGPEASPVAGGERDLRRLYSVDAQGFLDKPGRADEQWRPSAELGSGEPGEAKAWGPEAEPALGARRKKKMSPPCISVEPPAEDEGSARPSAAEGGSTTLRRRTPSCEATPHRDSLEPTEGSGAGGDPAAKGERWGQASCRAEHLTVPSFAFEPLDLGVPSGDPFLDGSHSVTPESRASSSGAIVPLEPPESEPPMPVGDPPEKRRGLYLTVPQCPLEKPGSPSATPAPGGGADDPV
Protocol: Electrophysiological Evaluation
Stable cell line expressing human Cav3.2 channels, which had been produced by Test method (1) of Example 140, was seeded in a 10-cm dish using DMEM medium containing 10% FBS, and the cells were cultured for 24 hours or longer under the conditions of 37° C. and 5% CO2. The cells were detached using Accutase and were used after being suspended in ice-cold extracellular solution. The Cav3.2 channel current was measured by the Whole-cell patch-clamp method using an automatic patch-clamp system (Port-a-Patch; Nanion Technologies GmbH, EPC-10; HEKA Elektronik GmbH, Patchmaster; HEKA Elektronik GmbH) and buffers described below. Measurement of the Cav3.2 channel current was carried out at room temperature, and the measurement conditions were set as follows: holding potential: −80 mV, depolarization potential: −20 mV, depolarization time: 100 msec, and depolarization frequency: 10 sec. The Cav3.2 channel current was defined as the peak value of the inward current observed when depolarization occurred at −20 mV.
For a test compound, a DMSO solution was diluted 1,000 times with extracellular solution, and thus a solution having an intended concentration was produced. The test compound was applied using an extracellular perfusion system (Nanion Technologies GmbH) until the Cav3.2 channel current was stabilized, and five concentrations at the maximum from the low-concentration side were cumulatively applied. The inhibition ratio of the test compound was calculated from the current value immediately before the application of the test compound and the change rate of the Cav3.2 channel current after the application of the test compound (conditions for a holding potential of −80 mV: test compound concentration of 0.3 μM, conditions for a holding potential of −100 mV: test compound concentration of 3 μM).
Extracellular solution: 135 mM NaCl, 4 mM KCl, 1 mM MgCl2, 5 mM CaCl2, 5 mM D-Glucose, and 10 mM HEPES, pH 7.4
Internal solution for electrode: 10 mM NaCl, 10 mM HEPES, 50 mM CsCl, 60 mM CsF, and 20 mM EGTA, pH 7.2

human Cav3.2 channels [2] = target: T2, human Cav3.2 channels; experiment: Intracellular calcium concentration measurement (Fluo-4 AM) in stable cells expressing human Cav3.2 channels, buffer A / buffer B; assay type: cell-based
Summary of the method: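 State-dependent Cav3.2 inhibition compared in two buffers differing in potassium equilibrium potential (−92 vs −110 mV). Stable HEK293 line, Fluo-4 dye; compound 15 min, room temperature, dark, then KCl addition (83.8 or 91.8 mM) triggers calcium influx read 10 s; IC50 from peak increment over baseline.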

[3] = test system: mouse partial sciatic nerve ligation (PSNL) model; experiment: Mechanical allodynia in a mouse partial sciatic nerve ligation (PSNL) model, intraperitoneal administration; assay type: in vivo; conditions: intraperitoneally administered, 20 to 30 mg/kg, compared to the vehicle group
Protocol: Mechanical Allodynia in a Mouse Partial Sciatic Nerve Ligation (PSNL) Model
Production of a mouse PSNL model was carried out according to the method of Seltzer, et al. A mouse was subjected to inhalation anesthesia with isoflurane. The femoral region of the mouse was shaved and disinfected with isodine. The skin on the thighbone of the mouse was incised, the fascia underneath the skin was cut, and the biceps femoris muscle was divided at a site between the heads of muscles. The sciatic nerve underneath the incision was checked, and then the sciatic nerve was detached without damaging the nerve. The needle of an 8-0 silk suture with a needle was passed through the sciatic nerve so as to penetrate through the nerve, and thus a portion of about ½ to ⅓ of the sciatic nerve was ligated. The skin was sutured, and the mouse was kept for about 7 days. The surgery of a Sham control mouse was performed only for checking of the sciatic nerve, and the skin was sutured.
The measurement of pain threshold was carried out after the mouse was transferred into a cage for measurement and was waited until exploratory behavior had disappeared. […] The 50% threshold was calculated by an up-down method by referring to the method of Chaplan, et al. (Quantitative assessment of tactile allodynia in the […]. J Neurosci Methods, 53, 1994, 55-63). […]

[4] = Tables 2 to 6, buffer A, equilibrium potential of potassium −92 mV, read-out: Inhibitory action of buffer A (inactivated state)
[5] = Table 1, buffer A, equilibrium potential of potassium −92 mV, read-out: Inhibitory action of buffer A (inactivated state)
[6] = Table 1, buffer B, equilibrium potential of potassium −110 mV, read-out: Inhibitory action of buffer B (resting state or closed state)

| Compound | CYP3A4 activity inhibition ratio at 10 μM of test compound (CYP3A4) | inhibition at 0.3 µM (human Cav3.2 channels [1]) | IC50 (human Cav3.2 channels [2]; [4]) | Cav3.2 channel current inhibition ratio at 3 μM of test compound (holding potential −100 mV) (human Cav3.2 channels [1]) | IC50 (human Cav3.2 channels [2]; [5]) | IC50 (human Cav3.2 channels [2]; [6]) | mechanical allodynia (pain threshold, von Frey filament test) [3] |
| --- | --- | --- | --- | --- | --- | --- | --- |
| C[C@@H](NC(=O)[C@@H]1CCN(CC(=O)Nc2cc(Cl)cc(Cl)c2)C1)c1ccc(OCC(F)(F)F)s1 [Example 42, (R)-1-(2-((3,5-dichlorophenyl)amino)-2-oxoethyl)-N—((R)-1-(5-(2,2,2-trifluoroethoxy)thiophen-2-yl)ethyl)pyrrolidine-3-carboxamide] | 77.9% | 87% | ≤ 100 nM | – | – | – | – |
| C[C@@H](NC(=O)[C@H]1C[C@@H]1c1nc2ccccc2[nH]1)c1cc2cc(F)c(F)cc2o1 [Example 91, (1S,2S)-2-(1H-benzo[d]imidazol-2-yl)-N—((R)-1-(5,6-difluorobenzofuran-2-yl)ethyl)cyclopropane-1-carboxamide] | 20.1% | 72% | ≤ 100 nM | – | – | – | – |
| C[C@@H](NC(=O)[C@@H]1CCN(CC(=O)NC(C)(C)C)C1)c1ccc(OCC(F)(F)F)s1.Cl [Example 15, (R)-1-(2-(tert-butylamino)-2-oxoethyl)-N—((R)-1-(5-(2,2,2-trifluoroethoxy)thiophen-2-yl)ethyl)pyrrolidine-3-carboxamide hydrochloride] | 21.9% | 33% | – | – | 100 to 1000 nM | 1000 to 10000 nM | – |
| C[C@@H](NC(=O)[C@H]1C[C@@H]1c1nc2ccccc2[nH]1)c1cc2cc(F)ccc2[nH]1 [Example 63, (1S,2S)-2-(1H-benzo[d]imidazol-2-yl)-N—((R)-1-(5-fluoro-1H-indol-2-yl)ethyl)cyclopropane-1-carboxamide] | 45.7% | 91% | ≤ 100 nM | – | – | – | – |
| C[C@@H](NC(=O)[C@H]1C[C@@H]1c1nc2ccccc2[nH]1)c1cc2c(F)cc(F)cc2o1 [Example 92, (1S,2S)-2-(1H-benzo[d]imidazol-2-yl)-N—((R)-1-(4,6-difluorobenzofuran-2-yl)ethyl)cyclopropane-1-carboxamide] | 23.6% | 74% | ≤ 100 nM | – | – | – | – |
| C[C@@H](NC(=O)[C@H]1C[C@@H]1c1nc2ccccc2[nH]1)c1ccc(C(=O)N2CCC(F)(F)C2)s1 [Example 60, Trans-2-(1H-benzo[d]imidazol-2-yl)-N—((R)-1-(5-(3,3-difluoropyrrolidine-1-carbonyl)thiophen-2-yl)ethyl)cyclopropane-1-carboxamide] | −1.2% | 48% | 100 to 1000 nM | – | – | – | – |
| C[C@@H](NC(=O)[C@H]1C[C@@H]1c1nc2ccccc2[nH]1)c1nc2cc(F)ccc2o1 [Example 105, (1S,2S)-2-(1H-benzo[d]imidazol-2-yl)-N—((R)-1-(5-fluorobenzo[d]oxazol-2-yl)ethyl)cyclopropane-1-carboxamide] | 21.2% | 58% | 100 to 1000 nM | – | – | – | – |
| C[C@@H](NC(=O)[C@H]1C[C@@H]1c1nc2ccccc2[nH]1)c1nc2ccc(F)cc2o1 [Example 114, (1S,2S)-2-(1H-benzo[d]imidazol-2-yl)-N—((R)-1-(6-fluorobenzo[d]oxazol-2-yl)ethyl)cyclopropane-1-carboxamide] | 30.0% | 32% | 100 to 1000 nM | – | – | – | – |
| C[C@@H](NC(=O)C1CC1c1nc2ccccc2[nH]1)c1ccc(C(=O)O)s1 (single isomer, unassigned) [Example 26] | 11.3% | 19% | 100 to 1000 nM | – | – | – | – |
| C[C@@H](NC(=O)[C@@H]1CCN(CC(=O)C(C)(C)C)C1)c1ccc(OCC(F)(F)F)s1 [Example 43, (R)-1-(3,3-dimethyl-2-oxobutyl)-N—((R)-1-(5-(2,2,2-trifluoroethoxy)thiophen-2-yl)ethyl)pyrrolidine-3-carboxamide] | 23.6% | 32% | 100 to 1000 nM | – | – | – | – |
| C[C@@H](NC(=O)[C@H]1C[C@@H]1c1nc2ccccc2[nH]1)c1cc2ccc(F)cc2o1 [Example 100, (1S,2S)-2-(1H-benzo[d]imidazol-2-yl)-N—((R)-1-(6-fluorobenzofuran-2-yl)ethyl)cyclopropane-1-carboxamide] | 27.9% | 90% | ≤ 100 nM | 52% | – | – | – |
| C[C@@H](NC(=O)[C@@H]1CCN(CC(=O)NC23CC4CC(CC(C4)C2)C3)C1)c1ccc(OCC(F)(F)F)s1 [Example 36, (R)-1-(2-(adamantan-1-ylamino)-2-oxoethyl)-N—((R)-1-(5-(2,2,2-trifluoroethoxy)thiophen-2-yl)ethyl)pyrrolidine-3-carboxamide] | 81.0% | 94% | ≤ 100 nM | – | – | – | – |

Now from value to compound, other results behind:

| CYP3A4 activity inhibition ratio at 10 μM of test compound (CYP3A4) | inhibition at 0.3 µM (human Cav3.2 channels [1]) | IC50 (human Cav3.2 channels [2]; [4]) | Cav3.2 channel current inhibition ratio at 3 μM of test compound (holding potential −100 mV) (human Cav3.2 channels [1]) | IC50 (human Cav3.2 channels [2]; [5]) | IC50 (human Cav3.2 channels [2]; [6]) | Compound | mechanical allodynia (pain threshold, von Frey filament test) [3] |
| --- | --- | --- | --- | --- | --- | --- | --- |
| 12.2% | 81% | 100 to 1000 nM | – | – | – | C[C@@H](NC(=O)C1CC1c1ccc2cnn(C)c2c1)c1ccc(OCC(F)(F)F)s1 (single isomer, unassigned) [Example 22A] | – |
| 12.7% | 60% | – | 13% | ≤ 100 nM | > 10000 nM | C[C@@H](NC(=O)C1CC1c1nc2ccccc2[nH]1)c1ccc(OCC(F)(F)F)s1 (single isomer, unassigned) [Example 3A] | suppressed mechanical allodynia statistically significantly |
| 13.0% | 59% | – | – | 100 to 1000 nM | 100 to 1000 nM | C[C@@H](NC(=O)C1CC1c1nc2ccccc2[nH]1)c1ccc(C(F)(F)F)s1 (single isomer, unassigned) [Example 5A] | – |
| 39.6% | 58% | – | – | ≤ 100 nM | > 10000 nM | C[C@@H](NC(=O)C1CC1c1nc2ccccc2n1C)c1ccc(OCC(F)(F)F)s1 (single isomer, unassigned) [Example 4A] | – |
